Read-outs that look alike come from different tables or passages of the source.
Key:
maize B73 protoplasts = conditions: for Viability (%): 1 mM GSH; for protoplast viability: 288 hours
Description: (§1) Separate suspensions of maize B73 and A188 protoplasts (2×10^5 cells per milliliter) were prepared in YPIM B-liquid medium containing various combinations of the added salts calcium chloride, potassium ascorbate, and magnesium chloride or magnesium sulfate. One-half milliliter aliquots of the suspensions were dispensed into a 24-well microtiter plate in the arrangement shown in Table 2, which lists the concentrations of calcium chloride (“Ca”), potassium ascorbate (“A”), and magnesium chloride (“MgCl2”) or magnesium sulfate (“MgSO4”) in millimolar values.
(§2) Viability was judged by Evans blue staining and visualization under a light microscope.
Separate suspensions of maize B73, winter wheat, soy, and strawberry protoplasts (2×10^5 cells per milliliter) were prepared in YPIM B-liquid medium containing calcium chloride at 0, 50, or 100 millimolar. One-half milliliter aliquots of the suspensions were dispensed into a 24-well microtiter plate.
Viability at day 8 of culture was judged by visualization under a light microscope.
Viability at day 13 was judged by Evans blue staining and visualization under a light microscope.
(§3) Separate suspensions of maize B73 protoplasts (2×10^5 cells per milliliter) were prepared in PIM B-liquid medium (identical to YPIM B-medium except with the 6-benzylaminopurine substituted with 0.022 milligrams/L thidiazuron) containing calcium chloride added at 0, 5, 20, 40, 70, or 100 millimolar. One-half milliliter aliquots of the suspensions were dispensed into a 24-well microtiter plate.
Viability was judged by visualization under a light microscope at day 7 and at day 14 of culture.
as §3, with “B73 and A188” for “B73”, “0” for “0, 5, 20, 40, 70,”, “50” for “100”
(§4) Viability was judged by visualization under a light microscope.
(§5) Separate suspensions of maize B73 and A188 protoplasts (2×10^5 cells per milliliter) were prepared in YPIM B-liquid medium containing (a) calcium chloride added at 100 millimolar, or (b) 1 millimolar glutathione, or (c) no added calcium or glutathione. One-milliliter aliquots of the suspensions were dispensed into a 24-well microtiter plate. At 16, 40, 64, and 136 hours of culture, 50-microliter samples were taken for hemocytometer analysis from each well; for the plates containing maize A188 protoplasts, parallel 50-microliter samples were taken from a replicate well at 16, 40, and 64 hours of culture for quantification using a Cellometer cell counter (Nexcelom Bioscience LLC, Lawrence, Mass.).
(§6) Viability was determined by Evans blue staining and quantification using a hemocytometer. Under conditions with high concentrations of calcium, Evans blue can create precipitates that interfere with cell counting; to prevent this, 5 microliters of an EDTA solution was added to the samples from the wells containing 100 millimolar calcium chloride immediately prior to staining.

[1] = test system: maize (Zea mays) alcohol dehydrogenase ADH1 gene; experiment: HDR/NHEJ editing of endogenous gene in maize protoplasts (PCR, KpnI/NdeI); type: cell-based; conditions: 0.5 mM GSH
Description: A ribonucleoprotein (RNP) was prepared with Cas9 nuclease (Aldevron, Fargo, N. Dak.) and a guide RNA complex designed to edit the first ADH1 exon, consisting of a crRNA (ZmADH1-B) with the sequence
Integrated DNA Technologies, Coralville, Iowa); the donor ssDNA contained three phosphorothioate linkages at each terminus (i.e., the three linkages between the most distal four bases on either end of the strand), and contained a KpnI restriction enzyme digestion site at nucleotide positions 67-72 (shown as underlined text). A double-stranded DNA (purchased from Integrated DNA Technologies, Coralville, Iowa) was designed with a forward strand having the sequence
wherein each strand was phosphorylated on the 5′ end and contained two phosphorothioate linkages at each terminus (i.e., the two linkages between the most distal three bases on either end of the strand); this contained an NdeI restriction site located at nucleotide positions 16-21 of the forward strand (SEQ ID NO:16), shown as underlined font. Insertion of this sequence into the first exon of the target gene ADH1 serves as a proxy readout for efficiency of the NHEJ pathway (i.e., non-homologous repair of the expected DSB).
(§7) Transfection procedures were essentially as described in Example 13. In a first experiment, cells were treated with the HDR ssDNA donor containing a Kpn1 restriction site, or with no donor polynucleotide. After transfection with the editing reagents, the washed and pelleted cells were then resuspended in PIM containing 50 millimolar CaCl2, and then plated in 6-well plates coated with 5% calf serum. The plates were sealed with Parafilm™ and allowed to incubate at 37 degrees Celsius for 1 hour. For the hypoxia treatment, the Parafilm™ was removed and the plates were then placed in a hypoxia chamber having about 5% oxygen by volume at 26 degrees Celsius in the dark. For normoxia treatment, the Parafilm™ was kept in place and the plates were incubated at 26 degrees Celsius in a growth chamber in the dark. Cells were harvested 48 hours and HDR editing efficacy was quantitated by PCR analysis using Phusion™ Flash PCR (Thermo Fisher Scientific, Waltham, Mass.).
as §7, with “In” for “Transfection procedures were essentially as described in Example 13. In”, “second” for “first”, “Kpn1 restriction site, or with the NHEJ dsDNA containing an NdeI” for “Kpn1”, “CaCl2, with or without 0.5 millimolar glutathione (GSH),” for “CaCl2,”, “subjected to” for “HDR editing efficacy was quantitated by”

maize B104 protoplasts = experiment: Cell division rate by EdU staining (% EdU); conditions: for EdU staining mean %: Ca^2+ 100 mM, glutathione 0.5 mM, 90 h
Description: Cell division rates are expressed as “% EdU” (percentage of cells displaying the EdU signal relative to the total cell count).
Cell division was monitored, e.g., by microscopic observations. […] Evidence of cell division was observed by microscopy and included increased cell or protoplast size, bulging membranes, and large groups of organelles occupying the separating daughter cells. Quantification of cell division was carried out using fluorescent staining. […] Cells that are the result of cellular division in the presence of EdU were identified by the resulting green fluorescent signal, which can be quantified by various means, e.g., with a microplate reader, cell counter, or cell sorter.
In a separate experiment, maize HiIIA protoplasts were grown in 24-well plates using YPIM B-liquid medium containing 100 millimolar Ca^2+ and 20 micromolar EdU. Identical plates were incubated under hypoxia (5% oxygen by volume, 26 degrees Celsius, 80% relative humidity) or ambient oxygen (21% oxygen by volume, 26 degrees Celsius, 80% relative humidity). Entire wells (250 microliters) were taken for EdU detection at four time points. The contents of each well was centrifuged and the pellet subjected to the Click-iT™ EdU Alexa Fluor™ 488 Imaging Kit (catalogue number C10337, Thermo Fisher Scientific, Waltham, Mass.) fluorescent labelling protocol. The labelled protoplasts were resuspended in YPIM B-medium and samples analyzed on a Nexcelom Cellometer (Nexcelom Bioscience LLC, Lawrence, Mass.). This assay was developed to detect the EdU signal from the nucleus of a cell resulting from cell division, as well as the fluorescent signal from chloroplasts as a measure of total cell count.
Entire wells (1000 microliters) were taken for EdU detection at three time points; analyses were of duplicate samples of each of two replicate wells.

maize A188 protoplasts = experiment: Protoplast viability (Evans blue staining / light microscope / hemocytometer); type: cell-based; conditions: for Viability (%): 1 mM GSH; for protoplast viability: 288 hours
Description: as §1, §2
Separate suspensions of maize A188 protoplasts (2×10^5 cells per milliliter) were prepared in YPIM B-liquid medium containing calcium chloride at 0 or 50 millimolar. One-half milliliter aliquots of the suspensions were dispensed into a 24-well microtiter plate.
as §4
as §3, with “B73 and A188” for “B73”, “0” for “0, 5, 20, 40, 70,”, “50” for “100”
as §5, §6

[2] = test system: maize B73 and A188 protoplasts; experiment: Protoplast viability, statements pooled for both maize lines; type: cell-based; conditions: after 288 hours, various ascorbate concentrations (0.1-1 mM)
Description: as §1, §2
as §5, with “One-milliliter aliquots of the suspensions were dispensed into a 24-well microtiter plate.” left out
Viability was determined by Evans blue staining and quantification using a hemocytometer. […]

[3] = 100 mM added salt, YPIM B- medium

N[C@@H](CCC(=O)N[C@@H](CS)C(=O)NCC(=O)O)C(=O)O [glutathione]
Viability (%) (maize B73 protoplasts; 0 hours, hemocytometer): 90%
Viability (%) (maize B73 protoplasts; 16 hours): 77%
Viability (%) (maize B73 protoplasts; 40 hours): 72%
Viability (%) (maize B73 protoplasts; 64 hours): 48%
Viability (%) (maize B73 protoplasts; 136 hours): 24%
% KpnI (HDR) ([1]; editing reagents: Null): 0.00%
% NdeI (NHEJ) ([1]; editing reagents: Null): 0.00%
% KpnI (HDR) ([1]; editing reagents: RNP only): 0.00%
% NdeI (NHEJ) ([1]; editing reagents: RNP only): 0.00%
% KpnI (HDR) ([1]; editing reagents: RNP plus HDR donor): 5.0%
% KpnI (HDR) ([1]; editing reagents: RNP plus HDR donor, listed as GSH): 5.00%
% NdeI (NHEJ) ([1]; editing reagents: RNP plus NHEJ donor): about 15%
% NdeI (NHEJ) ([1]; editing reagents: RNP plus NHEJ donor, listed as GSH): 15.01%
EdU staining mean % (maize B104 protoplasts; O2 5%): 18.4%
EdU staining mean % (maize B104 protoplasts; O2 21%): 16.9%
change in rate of cell division (% EdU) (maize B104 protoplasts; addition of 0.5 millimolar glutathione, hypoxic conditions, 100 mM Ca^2+): little change
increase in rate of cell division (% EdU) (maize B104 protoplasts; addition of 0.5 millimolar glutathione, normal atmospheric oxygen, 100 mM Ca^2+): about 2 fold
Viability (%) (maize A188 protoplasts; 0 hours, hemocytometer): 90%
Viability (%) (maize A188 protoplasts; 16 hours): 69%
Viability (%) (maize A188 protoplasts; 40 hours): 50%
Viability (%) (maize A188 protoplasts; 64 hours): 50%
Viability (%) (maize A188 protoplasts; 136 hours): 42%

[Cl-].[Cl-].[Mg+2] [magnesium chloride]
protoplast viability (maize B73 protoplasts; [3]): much higher viability than any well
plant protoplast viability (plant protoplasts; about 40 millimolar or about 50 millimolar): Even higher levels of plant protoplast viability
protoplast viability (plant protoplasts; between or about 50 to about 100 millimolar, several titration experiments): greatest improvement in protoplast viability
plant protoplast viability (plant protoplasts; culture medium contains about 30 millimolar): Beneficial effects
protoplast viability (maize A188 protoplasts; [3]): about 70%

O=S(=O)([O-])[O-].[Mg+2] [magnesium sulfate]
protoplast viability (maize B73 protoplasts; 50 or 100 mM): only a modest improvement
protoplast viability (maize A188 protoplasts; 50 mM added salt, YPIM B- medium): 30-40%
protoplast viability (maize A188 protoplasts; 50 or 100 mM): only a modest improvement

O=C1O[C@H]([C@@H](O)CO)C([O-])=C1O.[K+] [potassium ascorbate]
viability [2]: only slight effects
protoplast viability (maize A188 protoplasts; 0.2 millimolar and above added to wells with added calcium): slightly decrease viability
